PubChem BioAssay AID602486 (The Scripps Research Institute Molecular Screening Center, 2012)
Active and inactive are the calls of the source. No rule for the calls is given here.

Biological target: 3C-like protease (3CLpro), SARS coronavirus (filed as Infectious bronchitis virus)
Assay: PubChem AID 602486
Settings: recombinant 3CLpro, fluorogenic peptide cleavage

CC(=O)Nc1ccc(N(C(=O)Cn2cc(-c3ccccc3)nn2)C(C(=O)NC(C)(C)C)c2ccsc2)cc1 (stereo unspecified)
IC50: inactive
